Measured values published in patent US7037901B1, “Radiosensitization by indolocarbazole derivatives” (priority 2001, dated 2006).
Read-outs that look alike come from different tables or passages of the source.

Columns and labels:
[1] = test system: human breast cancer MCF-7 cells; experiment: Clonogenic survival assay with radiation (radiosensitization) in MCF-7 cells; assay type: cell-based; conditions: for ER (SER per footnote c, sensitization enhancement ratio): 2 μg/ml 1 h before radiation, at 10% survival; for Dq (width of the shoulder of the radiation survival curve): SHMT model fit, FIG. 3B; for Induction of RS / enhancement of radiocytotoxicity: one-hour preincubation with 2 μg/ml, FIG. 2; for RT dose (Gy) at 10% survival: pre-treated 2 μg/ml 1 h, rinsed, then radiation; for Enhancement of radiocytotoxicity: 10 μg/ml (data not shown)
Protocol: (§1) Clonogenic Survival Assay. […] 18–24 h prior to experimental studies.
(§2) Colonies consisting of >50 cells were counted.
(§3) Irradiation of Cells. Drug-treated and control cells in medium were irradiated using a cobalt-60 source (Eldorado 8; Theratronics, Canada) at a dose rate of 105 cGy/min.
(§4) Analysis of Survival Curves. Survival curves were corrected for cytotoxicity induced by drug alone treatment. Sensitization enhancement ratios (SERs) and standard deviations for survival curves were determined at 10% cell survival. Each SER was calculated by dividing the radiation dose to induce 10% cell survival in the absence of radiosensitizer with the radiation dose to induce 10% cell survival in the presence of radiosensitizer.
The updated programs developed by Dr. N. Albright (San Rafael, Calif.) (Albright, N., Radiat. Res., 112:331–340 (1987)) were used for curve fitting for MCF-7 cells with the linear quadratic (LQ) and the single hit multi-target (SHMT) models. Both the LQ and SHMT models gave qualitatively good fits. The fit with the SHMT model was used for the present study.

[2] = biological target: T1, covalent topoisomerase-DNA cross-links in CHO cells (Cricetulus griseus, UniProt Q07050, S505G); experiment: In vivo K+-SDS co-precipitation assay for protein-DNA cross-links; assay type: cell-based, Chinese hamster; design: key to Protein-DNA cross-links: +++: high activity; ++: modest activity; +: low activity; conditions: 30-min drug treatment, based on FIG. 5
T1 construct: endogenous in cells; host or cells: Chinese hamster ovary CHO cells
Source text: In vivo K^+-SDS co-precipitation assay for protein-DNA cross-links. The K^+-SDS co-precipitation assay as described previously (Chen, Y. N., et al., J. Biol. Chem., 265:10073–10080 (1990)) was used to quantify the formation of covalent topoisomerase-DNA cross-links in drug-treated cells.
Briefly, the DNA in logarithmic growing Chinese hamster CHO cells was overnight-labeled in medium containing 1 μCi/ml of [mehtyl-^3H] thymidine. These cells were then trypsinized and diluted in fresh medium before aliquoted into a 24-well plate. After overnight incubation, the labeled cells were treated with various concentrations of drugs for 30 min, washed with phosphate-buffered saline once, and lysed by adding 1 ml of prewarmed lysis solution (1.25% SDS, 5 mM EDTA, 0.4 mg/ml salmon sperm DNA, pH 8.0, 65° C.).
Following shearing chromosomal DNA by passing the lysate through a 19-gauge needle, the sample was transferred to a tube containing 0.25 ml of 325 mM KCl. The sample was vortexed vigorously for 10 s, cooled on ice for 10 min and centrifuged at 3000 rpm for 10 min at 4° C.
The pellet was then resuspended in 1 ml of a wash solution (100 mM KCl, 1 mM EDTA, 0.1 mg/ml salmon sperm DNA, 10 mM Tris-HCl, pH 8.0) and placed at 65° C. for 10 min with occasional mixing. The sample was again cooled on ice for 10 min and centrifuged at 3000 rpm for 10 min at 4° C. After the pellet from each sample was washed again, the pellet was finally resuspended in 0.2 ml of 65° C. water and added to 5 ml of scintillation fluid to determine radioactive counts.
The background precipitable counts were obtained by treating the lysate with proteinase K (400 μg/ml) at 65° C. for 2 h. Data are arithmetic means (±SD) of three determinations, and the background counts have been subtracted.

[3] = test system: Chinese Hamster lung fibroblast DC3F cells; experiment: Clonogenic survival assay, cytotoxicity in DC3F cells
Protocol: Clonogenic Survival Assay. For a typical clonogenic survival experiment, stock cultures of exponentially growing cells were trypsinized, rinsed, and plated (5×10^5 cells per dish for DC3F and DC3F/C-10 cells; 1×10^6 cells for MCF-7 cells) into 100-mm petri dishes and incubated at 37° C. 18–24 h prior to experimental studies.
Following various experimental protocols with drug incubation and irradiation, cells were trypsinized, rinsed, counted, and plated for […] colony formation. Depending on the anticipated survival level, 10^2 to 10^5 cells were plated per dose point. When higher cell numbers were plated, large petri dishes were used to avoid possible cell-density effect (100-mm instead of 60-mm petri dishes for cell number≧5×10^4). Depending on the treatment protocols, an equivalent amount of DMSO was added into each of the control radiation alone dishes (final DMSO concentration <0.1%).
Following seven to fourteen days of incubation, colonies were fixed with methanol/acetic acid (3:1), stained with crystal violet. Colonies consisting of >50 cells were counted. All survival points were done in triplicate, and experiments were conducted a minimum of two times. Error bars shown in the figures represent standard deviations (SD) and are shown when larger than the symbol.
The DC3F/C-10 cell line was selected from the Chinese Hamster lung fibroblast DC3F cell line in the presence of 1 μM of camptothecin (Albright, N., Radiat. Res., 112:331–340 (1987), and Chen, Y. N., J. Biol. Chem., 265:10073–10080 (1990)). […] In an attempt to determine the importance of TOP1 in mediating the cytotoxic and radiosensitizing effects by INDO derivatives, clonogenic survival assays were performed in DC3F and DC3F/C10 cells.

[4] = test system: DC3F cells; experiment: Radiosensitization in DC3F cells (clonogenic survival with radiation); assay type: cell-based, Chinese hamster; conditions: for Induction of RS: concentrations as high as 10 μg/ml (data not shown)
Protocol: as §1, §2, §3, §4

[5] = test system: TOP1 mutant DC3F/C10 cells; experiment: Radiosensitization in DC3F/C10 cells (clonogenic survival with radiation); assay type: cell-based, Chinese hamster; conditions: for Radiation Dose (Gy) at 10% Survival / SER / Induction of RS: DC3F/C10 cells; for Resistance of DC3F/C-10 cells to induction of RS: in comparison to the DC3F cells, Table 4; for Induction of RS: concentrations as high as 10 μg/ml (data not shown)
Protocol: as §1, §2, §3, §4

[6] = test system: Chinese hamster CHO cells; experiment: Radiosensitization in CHO cells (preliminary, data not shown); assay type: cell-based; conditions: non-cytotoxic concentrations of 2 μg/ml and 10 μg/ml
[7] = biological target: camptothecin-resistant TOP1 mutant F361S (Homo sapiens, UniProt P11387, F361S); conditions: published work; cited from earlier work
camptothecin-resistant TOP1 mutant F361S, sequence (P11387 whole entry F361S): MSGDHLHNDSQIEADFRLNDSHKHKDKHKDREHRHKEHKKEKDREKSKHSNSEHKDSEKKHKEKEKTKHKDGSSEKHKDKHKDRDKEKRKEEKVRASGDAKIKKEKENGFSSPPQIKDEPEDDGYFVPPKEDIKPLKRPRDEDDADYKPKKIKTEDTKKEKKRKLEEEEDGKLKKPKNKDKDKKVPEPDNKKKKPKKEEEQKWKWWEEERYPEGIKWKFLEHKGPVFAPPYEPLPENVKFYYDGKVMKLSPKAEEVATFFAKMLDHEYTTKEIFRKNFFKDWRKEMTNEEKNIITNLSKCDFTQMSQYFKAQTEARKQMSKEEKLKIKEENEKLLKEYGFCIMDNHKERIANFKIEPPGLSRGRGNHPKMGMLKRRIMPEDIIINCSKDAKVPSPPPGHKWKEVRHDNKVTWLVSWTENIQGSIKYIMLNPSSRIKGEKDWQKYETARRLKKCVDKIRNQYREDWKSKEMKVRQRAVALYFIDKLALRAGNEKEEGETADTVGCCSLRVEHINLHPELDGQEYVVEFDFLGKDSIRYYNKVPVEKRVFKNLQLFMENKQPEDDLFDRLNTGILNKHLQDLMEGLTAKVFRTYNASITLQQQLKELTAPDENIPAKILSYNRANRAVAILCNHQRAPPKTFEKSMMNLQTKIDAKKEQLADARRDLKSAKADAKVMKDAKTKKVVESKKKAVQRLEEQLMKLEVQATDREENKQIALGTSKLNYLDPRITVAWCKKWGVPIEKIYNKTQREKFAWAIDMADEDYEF

T1 sequence (Q07050 2-767 S505G): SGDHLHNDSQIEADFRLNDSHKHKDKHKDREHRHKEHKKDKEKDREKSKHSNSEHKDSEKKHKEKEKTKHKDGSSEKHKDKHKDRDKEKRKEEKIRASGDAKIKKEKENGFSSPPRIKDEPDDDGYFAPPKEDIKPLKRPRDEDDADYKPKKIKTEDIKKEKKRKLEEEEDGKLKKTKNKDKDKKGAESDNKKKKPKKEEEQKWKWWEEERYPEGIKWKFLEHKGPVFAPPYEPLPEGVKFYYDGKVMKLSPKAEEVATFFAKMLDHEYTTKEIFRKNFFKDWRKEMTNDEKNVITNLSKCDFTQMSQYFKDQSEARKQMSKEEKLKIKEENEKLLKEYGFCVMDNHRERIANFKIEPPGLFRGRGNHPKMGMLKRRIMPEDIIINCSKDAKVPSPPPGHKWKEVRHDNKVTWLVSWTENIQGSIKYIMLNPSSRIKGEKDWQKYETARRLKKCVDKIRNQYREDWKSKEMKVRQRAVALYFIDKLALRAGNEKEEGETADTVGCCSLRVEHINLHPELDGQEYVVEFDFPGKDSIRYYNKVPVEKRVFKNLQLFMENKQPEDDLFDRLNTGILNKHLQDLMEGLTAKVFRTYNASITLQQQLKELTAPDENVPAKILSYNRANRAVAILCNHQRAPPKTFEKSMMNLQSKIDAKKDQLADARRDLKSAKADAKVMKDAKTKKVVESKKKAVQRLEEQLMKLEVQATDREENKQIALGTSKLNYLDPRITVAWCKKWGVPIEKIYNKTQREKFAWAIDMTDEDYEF

Row | SMILES | ER (SER per footnote c, sensitization enhancement ratio) [1] | Dq (width of the shoulder of the radiation survival curve) [1] | Induction of RS / enhancement of radiocytotoxicity [1] | RT dose (Gy) at 10% survival [1] [Gy] | Protein-DNA cross-links [2] | Radiation Dose (Gy) at 10% Survival ([4]; 5.0 μg/ml) [Gy] | SER ([4]; 5.0 μg/ml) | Radiation Dose (Gy) at 10% Survival ([5]; 5.0 μg/ml) [Gy] | SER ([5]; 5.0 μg/ml) | Resistance of DC3F/C-10 cells to induction of RS [5] | Cytotoxic effect ([3]; DC3F cells) | Enhancement of radiocytotoxicity [1] | Induction of RS [4] | Induction of RS [5] | also measured
1 | CO[C@H]1[C@H](O)[C@@H](O)[C@H](n2c3c(Cl)cccc3c3c4c(c5c6cccc(Cl)c6[nH]c5c32)C(=O)NC4=O)O[C@@H]1CO [F1, rebeccamycin] | 1.9 | drastically reduced | induction of RS was observed | 3.8 | ++ | 4.6 | 1.3 | 4.8 | 1.1 | showed resistance to induction of RS | – | – | – | – | Cytotoxic effect [3]: lack of cytotoxic effect; Radiation Dose (Gy) at 10% Survival ([4]; 1.0 μg/ml): 4.9 Gy; SER ([4]; 1.0 μg/ml): 1.2; Radiation Dose (Gy) at 10% Survival ([5]; 25 μg/ml): 4.5 Gy; SER ([5]; 25 μg/ml): 1.2
2 | COC1C(CO)OC(n2c3ccccc3c3c4c(c5c6ccccc6[nH]c5c32)C(=O)OC4=O)C(O)C1O (stereo not shown) [F5] | 1.7 | drastically reduced | induction of RS was observed | 4.2 | + | – | – | – | – | – | lack of cytotoxic effect | – | – | – | Induction of RS [6]: potent inducer of RS
3 | COC1C(CO)OC(n2c3ccccc3c3c4c(c5c6ccccc6[nH]c5c32)C(=O)N(O)C4=O)C(O)C1O (stereo not shown) [F7] | 1.7 | drastically reduced | induction of RS was observed | 4.2 | ++ | 3.9 | 1.5 | 5.2 | 1.0 | showed resistance to induction of RS | – | – | – | – | Radiation Dose (Gy) at 10% Survival ([4]; 2.5 μg/ml): 4.6 Gy; SER ([4]; 2.5 μg/ml): 1.3; Radiation Dose (Gy) at 10% Survival ([4]; 10 μg/ml): 3.6 Gy; SER ([4]; 10 μg/ml): 1.7; Radiation Dose (Gy) at 10% Survival ([5]; 10 μg/ml): 4.9 Gy; SER ([5]; 10 μg/ml): 1.1; Radiation Dose (Gy) at 10% Survival ([5]; 20 μg/ml): 4.1 Gy; SER ([5]; 20 μg/ml): 1.3; Cross-resistance of mutant TOP1 [7]: cross-resistant
4 | COC1C(CO)OC(n2c3c(Cl)cccc3c3c4c(c5c6cccc(Cl)c6[nH]c5c32)C(=O)N(C)C4=O)C(O)C1O (stereo not shown) [F43] | 1.0 | – | do not enhance radiocytotoxicity | 7.0 | + | – | – | – | – | – | lack of cytotoxic effect | do not enhance radiocytotoxicity | – | – | –
5 | COC1C(CO)OC(n2c3ccccc3c3c4c(c5c6ccccc6[nH]c5c32)C(=O)N(C)C4=O)C(O)C1O (stereo not shown) [F44] | 1.0 | – | do not enhance radiocytotoxicity | 6.9 | ++ | – | – | – | – | – | – | do not enhance radiocytotoxicity | incapable of inducing RS | incapable of inducing RS | –
6 | COC1C(CO)OC(n2c3ccccc3c3c4c(c5c6ccccc6[nH]c5c32)C(=O)NC4=O)C(O)C1O (stereo not shown) [F71] | 1.0 | – | do not enhance radiocytotoxicity | 7.2 | +++ | – | – | – | – | – | – | do not enhance radiocytotoxicity | incapable of inducing RS | incapable of inducing RS | –
